Measurements published in patent publication US10258048B2, “Bacillus sp. strain with antifungal, antibacterial and growth promotion activity” (Marrone Bio Innovations, Inc, priority 2012, dated 2019).

test system: Bacillus sp. isolate F727; assay: Antibiotic susceptibility of Bacillus sp. isolate F727, antibiotic discs on Mueller-Hinton agar; format: cell-based; set-up: key: +++ indicates highly susceptible (no growth); ++ indicates moderately susceptible (reduced growth); − indicates no susceptibility; details: pre-loaded antibiotic discs (load in ug); 25° C., 48 hours
Method: Antibiotic susceptibility of Bacillus sp. isolate F727 was tested using antibiotic discs on Muller-Hinton medium. A loopful of F727 was resuspended in 1 mL of sterile deionized water, and 100 μL of this suspension was streaked onto a Mueller-Hinton agar plate. After absorption of the streak into the agar, pre-loaded antibiotic discs were placed on the plate, and the plate was incubated at 25° C. for 48 hours.

| Compound | Susceptibility of Bacillus sp. F727 to various antibiotics |
| --- | --- |
| C[C@@H](O)[C@H]1C(=O)N2C(C(=O)O)=C(SCCN=CN)C[C@H]12 [Imipenem] | +++ |
| Gentamicin | +++ |
| O=C(N[C@H](CO)[C@H](O)c1ccc([N+](=O)[O-])cc1)C(Cl)Cl [Chloramphenicol] | +++ |
| CO/N=C(\C(=O)N[C@@H]1C(=O)N2C(C(=O)O)=C(COC(N)=O)CS[C@H]12)c1ccco1 [Cefuroxime] | +++ |
| NC[C@H]1O[C@H](O[C@H]2[C@H](O)[C@@H](O[C@H]3O[C@H](CO)[C@@H](O)[C@H](N)[C@H]3O)[C@H](N)C[C@@H]2N)[C@H](O)[C@@H](O)[C@@H]1O [Kanamycin] | +++ |
| CC1(C)S[C@@H]2[C@H](NC(=O)[C@H](N)c3ccccc3)C(=O)N2[C@H]1C(=O)O [Ampicillin] | +++ |
| CN(C)[C@@H]1C(O)=C(C(N)=O)C(=O)[C@@]2(O)C(O)=C3C(=O)c4c(O)cccc4[C@@](C)(O)[C@H]3[C@H](O)[C@@H]12 [Oxytetracycline] | +++ |
| Penicillin | +++ |
| Sulphamethoxazole-Trimethoprim | +++ |
| CC[C@H]1OC(=O)[C@H](C)[C@@H](O[C@H]2C[C@@](C)(OC)[C@@H](O)[C@H](C)O2)[C@H](C)[C@@H](O[C@@H]2O[C@H](C)C[C@H](N(C)C)[C@H]2O)[C@](C)(O)C[C@@H](C)C(=O)[C@H](C)[C@@H](O)[C@]1(C)O [Erythromycin] | +++ |
| CN(C)[C@@H]1C(O)=C(C(N)=O)C(=O)[C@@]2(O)C(O)=C3C(=O)c4c(O)cccc4[C@@](C)(O)[C@H]3C[C@@H]12 [Tetracycline] | +++ |
| CCN1CCN(C(=O)N[C@@H](C(=O)N[C@@H]2C(=O)N3[C@@H]2SC(C)(C)[C@@H]3C(=O)O)c2ccccc2)C(=O)C1=O [Piperacillin] | +++ |
| [H]/N=C(/N)N[C@H]1[C@H](O)[C@@H](O)[C@H](O[C@@H]2O[C@@H](C)[C@](O)(C=O)[C@H]2O[C@@H]2O[C@@H](CO)[C@H](O)[C@@H](O)[C@@H]2NC)[C@@H](N/C(N)=N\[H])[C@@H]1O [Streptomycin] | ++ |
| O=C(O)c1cn(C2CC2)c2cc(N3CCNCC3)c(F)cc2c1=O [Ciprofloxacin] | +++ |
